Data on two compounds can be found in US20060074091A1, “Nootropic effect enhancer” (priority 2000, published 2006).

The subject of the experiment is Fischer male rats with Meynert's basal nuclei damage. In words: Passive avoidance learning test (mneme test) in rats with ibotenic acid injury of Meynert's basal nuclei. Type of experiment: in vivo, rat. To be noted: 0.1 mg/kg. How it is done:
A solution prepared by dissolving ibotenic acid in physiological saline to have a concentration of 8 μg/μl was injected into the Meynert's basal nuclei of Fischer male rats (n=12 to 13, 11-weeks old when used in the experiment). One μl of the solution was injected thereinto over a period of 6 minutes, and then the rats were left as they were for 5 minutes to thereby make them have bilateral injury. Three weeks after the treatment, they were used in the experiment. Before the experiment, they were handled for 3 days. In the mneme test, the rats were first put into the light room of a passive avoidance learning test device, and the latent time taken before they entered the dark room was measured (acclimation trial). […] Then, the rats were made to receive electric shock (0.4 mA, 4 seconds) via the grid of the floor of the dark room (acquirement trial) 24 hours after the acquirement trial, the rats were again transferred into the light room, and the reaction latent time taken before the rats entered the dark room was measured up to at most 300 seconds (retention trial). […] The dose of each of the two substances was determined on the basis of the test results previously made for the efficacy of the single administration of each substance to the same models. […]

The structures appear in SMILES notation.

Consider `COc1cc2c(cc1OC)C(=O)C(CC1CCN(Cc3ccccc3)CC1)C2.Cl` (centres unmarked) [E2020, Donepedil Hydrochloride], for which the “effect on reaction latent time in single administration (in words)” value was “ineffective”.

In the case of `CC(=O)N1CCN(NC(=O)c2ccc(F)cc2)CC1` [FK960, N-(4-acetyl-1-piperazinyl)-p-fluorobenzamide Monohydrate], the “effect on reaction latent time in single administration (in words)” value is given as “ineffective”.
